“Also recorded” adds a separate entry of the source.
How the values were obtained:
human CD3 T cells = assay: Transfection of human CD3 T cells (CD8 and CD4 subsets) with Fab/Nb-targeted LNPs; assay type: cell-based; details: targeted Lipid 8 LNP (Lipid 5 in Example 43), GFP mRNA approximately 2.5 μg/mL, approximately 24 hr
Procedure: (§1) LNPs were prepared using the mixing process described in Example 6, the buffer exchange process described below in Example 21. Using methods similar to Example 12, hSP34 and TRX2 Fab-lipid conjugates and a non-T cell specific anti-HER2 lipid-conjugate (Nellis D F, Ekstrom D L, Kirpotin D B, Zhu J, Andersson R, Broadt T L, Ouellette T F, Perkins S C, Roach J M, Drummond D C, Hong K, Marks J D, Park J W and Giardina S L (2005) Preclinical manufacture of an anti-HER2 scFv-PEG-DSPE, liposome-inserting conjugate. 1. Gram-scale production and purification. Biotechnol Prog 21:205-220) were post-inserted at various densities (SP34 0.25-17 g/mol; TRX2 0.25-9 g/mol; SP34+TRX2 0.25-9 g/mol each conjugate; anti-HER2 17 g/mol) into LNPs containing Lipid 8 and anti-CD20 targeting CART mRNA. Transfections were performed with human CD3 T cells at approximately 2.5 μg/mL mRNA for approximately 24 hr. For FACS analysis T cells were stained with M1 antibody (Sigma, F3040) that bind a N-terminus FLAG-tag variant sequence on the TTR-023 CAR (sequence provided below) in addition to staining for CD69 (Biolegend, 310930) and CD4 (Biolegend, 344648) to differentiate CD8 from CD4 cells.
LNPs were prepared using the mixing process described in Example 6, the buffer exchange process described in Example 21. Using methods similar to Example 12, hSP34, TRX2, and Ibalizumab Fab-lipid conjugates and a non-T cell specific anti-HER2 lipid-conjugate were post-inserted at various densities (specified in FIGS. 20A and 20B into LNPs containing Lipid 8 and Cy5/GFP mRNA. Transfections were performed with human CD3 T cells at approximately 2.5 μg/mL mRNA for approximately 24 hr and stained for CD69 (Biolegend, 310930) and CD4 (Biolegend, 344648) to differentiate CD8 from CD4 cells by FACS analysis.
LNPs were prepared using the mixing process described in Example 6, the buffer exchange process described in Example 21. […] Levels of transfection of CD3 T cells was measured by flow cytometry. […]

CD69 = CD69 upregulation on T cells after LNP transfection (FACS staining); assay type: cell-based, human; details: approximately 24 hr after targeted Lipid 8 LNPs at approximately 2.5 μg/mL mRNA
Procedure: as §1
LNPs were prepared using the mixing process described in Example 6, the buffer exchange process described in Example 21. […]

Ibalizumab: anti-CD4 Fab from Ibalizumab sequence, SEQ ID NO: 10 and 11
% GFP transfection and GFP expression (MFI) of CD8 and CD4 T cells, in words (human CD3 T cells): higher % transfection (FIG. 71A) and GFP expression levels; also recorded: highly specific LNP transfection and protein translation of CD4+ T cells versus CD8+ T cells; also recorded: increase in transfection efficiency going from 2K PEG to 3.4K PEG; also recorded: high binding and transfection of CD4 T cells while displaying minimal off-target binding and transfection of CD8 T cells | CD69 upregulation on CD8 and CD4 T cells, in words (CD69): much lower levels of CD69

— patent US20220218614A1, “IONIZABLE CATIONIC LIPIDS AND LIPID NANOPARTICLES, AND METHODS OF SYNTHESIS AND USE THEREOF” (Tidal Therapeutics, Inc., priority 2020, published 2022)
